Numbered stars: 1 amine (or outer) side, 2 acyl side, 3 side chain; on linkers, the order of the positions; unused ones are H or OH. Bridge positions count the residues as written; N and C are the ends. Square brackets hold non-standard residues; d marks the D form. I, II: the chains in the order shown. X1 = O=C([C@H](Cc1c[nH]c2ccccc12)N(c1ccc([N+](=O)[O-])c2nonc12)[*:1])[*:2]
Legend:
[1] = Drug uptake in human L02 cells at 15 uM measured after 1 hr by Hoechst 33258 staining based confocal laser scanning microscopy; type: ADME, cell-based; conditions: l02, 1 h
[2] = Drug uptake in human BEAS-2B cells at 15 uM measured after 1 hr by Hoechst 33258 staining based confocal laser scanning microscopy; type: ADME, cell-based
[3] = Drug uptake in human A549 cells at 15 uM measured after 1 hr by Hoechst 33258 staining based flow cyotmetry; type: ADME, cell-based; conditions: a549, 1 h
[4] = Drug uptake in cytoplasm of human HepG2 cells at 15 uM measured after 60 mins by Hoechst 33258/Lyso-Tracker Red staining based flow cytometry; type: ADME, subcellular; conditions: hepg2, 1 h
[5] = Drug uptake in human HepG2 cells membrane at 15 uM measured after 15 mins by Hoechst 33258/Lyso-Tracker Red staining based flow cytometry; type: ADME, cell membranes, Cell membrane; conditions: hepg2, 0.25 h
[6] = Drug uptake in human HepG2 cells at 15 uM measured after 60 to 120 mins by Hoechst 33258/Lyso-Tracker Red staining based flow cytometry; type: ADME, cell-based; conditions: hepg2, 15 µM, time 60-120 min
[7] = Drug uptake in human HepG2 cells at 15 uM measured after 1 hr by Hoechst 33258 staining based confocal laser scanning microscopy; type: ADME, cell-based; conditions: hepg2, 1 h
[8] = Drug uptake in human HepG2 cells at 15 uM measured after 1 hr by Hoechst 33258 staining based flow cyotmetry; type: ADME, cell-based; conditions: hepg2, 1 h
[9] = Drug uptake in human L02 cells at 15 uM measured after 1 hr by Hoechst 33258 staining based flow cyotmetry; type: ADME, cell-based; conditions: l02, 1 h
[10] = Drug uptake in human BEAS-2B cells at 15 uM measured after 1 hr by Hoechst 33258 staining based flow cyotmetry; type: ADME, cell-based
[11] = Drug uptake in endosome of human HepG2 cells at 15 uM measured after 30 mins by Hoechst 33258/Lyso-Tracker Red staining based flow cytometry; type: ADME; conditions: hepg2, 0.5 h
[12] = Drug uptake in human A549 cells at 15 uM measured after 1 hr by Hoechst 33258 staining based confocal laser scanning microscopy; type: ADME, cell-based; conditions: a549, 1 h

Measured: Drug uptake

I: H-[X1]ELVVLGKLLLHHLLHHLLHHGLRKRLRKFRNKIKEK / II: H-GLRKRLRKFRNKIKEK-NH2 (amide I:C-II:4)
Active: [1] | [2] | [3] | [4] | [5] | [6] | [7] | [8] | [9] | [10] | [11] | [12]
